Results on 21 compounds are retold here after patent US20250002475A1 (EPICS THERAPEUTICS, priority 2023, published 2025).

The test system of one assay is Kasumi-1 cells. Put plainly: Kasumi-1 cellular viability assay (ATP-Lite, 72 h). Type of assay: cell-based. Conditions: Homo sapiens, ATP-Lite luminescence, % viability relative to DMSO. On the procedure:
Kasumi-1 cell line was purchased from ATCC (ATCC® CRL2724™). Cells were isolated from the peripheral blood of a child with acute myeloid leukemia (AML FAB M2) (in 2nd relapse after bone marrow transplantation) in 1989. Most cells are round. Kasumi-1 cells are observed to grow individually or in small clumps in suspension.
Kasumi-1 cells are cultured in RPMI-1640 (Gibco A10491-01) containing 10% heat-inactivated and 0.22 μm filtered FBS (Gibco 10270-106) at a density of 3E+5 and 3E+6 viable cell/mL following the certificate of analysis.
(§1) Cellular viability assay: Kasumi-1 cells were plated (50 μL) in 96-well cell culture microplates (PS, F-Bottom black, Cellstar, Greiner 655086) at final concentration of 15000 cells/well. The compounds of the invention were dissolved in DMSO, and a titration curve was generated at 1000× final concentration. Compounds were then diluted 500× in tissue culture medium (RPMI-1640, 10% FBS). Then 50 μl of test compound were added to Kasumi-1 cells in a final DMSO concentration of 0.1%, final volume 100 μl. A gas permeable sealing membrane was applied to the plate to prevent evaporation (Breathe-Easy sealing membrane, Sigma Z380059-1PK) and cells were incubated for 72 h at 37° C., 5% CO2, 80% RH. After 72h of treatment, the plates were taken out of the incubator and left for a few minutes at room temperature. 100 μl of the reconstituted reagent ATP-Lite One Step (Perkin Elmer, 6016739) was added to each well. The plates were shaken for 2 min at 700 rpm and placed in the dark for 10 minutes at room temperature before measurement of luminescence intensity with Envision instrument. The raw data were expressed in RLU. Results were expressed in % of viability relative to DMSO control and an IC50 was calculated based on the concentration-response profile of individual compounds.

Assay [1] deals with T1, recombinant METTL3/METTL14 complex (Homo sapiens, UniProt Q86U44).
T1 construct: purchased Active Motif 311970; host or cells: Sf9 cells
T1 sequence (Q86U44 whole entry): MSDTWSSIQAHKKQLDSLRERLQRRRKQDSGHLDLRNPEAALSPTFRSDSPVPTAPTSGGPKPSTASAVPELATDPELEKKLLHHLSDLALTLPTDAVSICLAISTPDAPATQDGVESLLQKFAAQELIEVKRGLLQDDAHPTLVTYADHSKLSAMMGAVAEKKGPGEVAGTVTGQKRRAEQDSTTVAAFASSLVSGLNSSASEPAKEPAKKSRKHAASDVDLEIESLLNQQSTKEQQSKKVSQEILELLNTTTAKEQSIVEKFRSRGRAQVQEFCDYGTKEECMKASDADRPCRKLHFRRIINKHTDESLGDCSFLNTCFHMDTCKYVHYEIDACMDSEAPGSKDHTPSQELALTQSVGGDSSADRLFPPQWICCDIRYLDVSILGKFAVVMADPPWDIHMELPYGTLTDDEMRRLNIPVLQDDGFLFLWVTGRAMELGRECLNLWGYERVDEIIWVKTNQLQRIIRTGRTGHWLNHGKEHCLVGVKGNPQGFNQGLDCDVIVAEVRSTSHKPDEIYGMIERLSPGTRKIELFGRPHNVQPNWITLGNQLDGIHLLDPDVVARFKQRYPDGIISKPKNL
T1 sequence (Q9HCE5 whole entry partner): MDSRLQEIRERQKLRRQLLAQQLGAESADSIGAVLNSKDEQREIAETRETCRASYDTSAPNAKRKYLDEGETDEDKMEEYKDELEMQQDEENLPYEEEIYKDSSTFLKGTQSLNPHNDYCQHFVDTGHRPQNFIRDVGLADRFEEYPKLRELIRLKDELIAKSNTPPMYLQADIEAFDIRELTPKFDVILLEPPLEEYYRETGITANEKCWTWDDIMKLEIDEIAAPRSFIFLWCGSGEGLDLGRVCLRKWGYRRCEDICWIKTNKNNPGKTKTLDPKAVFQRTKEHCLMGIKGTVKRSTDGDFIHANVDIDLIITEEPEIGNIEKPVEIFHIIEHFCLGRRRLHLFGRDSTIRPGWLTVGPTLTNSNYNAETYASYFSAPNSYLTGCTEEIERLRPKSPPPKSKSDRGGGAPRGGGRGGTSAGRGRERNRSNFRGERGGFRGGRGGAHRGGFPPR
Put plainly: METTL3/14 Scintillation Proximity Assay (SPA), RNA methyltransferase activity. Type of assay: biochemical. Particulars: 5.31 nM METTL3/14 complex, 250 nM RNA substrate, 1 μM 3H-SAM, 90 min; for compounds marked * best of the two separated forms. For orientation: Scintillation proximity formats need no separation of bound from free tracer.

In a further assay the test system is Caov-3 cells. Put plainly: Caov-3 cellular viability assay (ATP-Lite, 72 h). Type of assay: cell-based. Conditions: Homo sapiens, ATP-Lite luminescence, % viability relative to DMSO. On the procedure: Caov-3 cell line was purchased from ATCC (ATCC® HTB-75™). Cells were isolated from the ovary of a ovarian cancer patient.
Caov-3 cells are cultured in DMEM (ATCC 30-2002) containing 10% heat-inactivated and 0.22 μm filtered FBS (Gibco 10270-106). The cells are seeded at 2.5E+4cell/cm^2 within the recommended subcultivation ratio of 1:3 to 1:6, as stated on the certificate of analysis issues by the provider of the cells.
as §1, with “assay: Caov-3” for “assay: Kasumi-1”, “of 10000” for “of 15000”, “to Caov-3” for “to Kasumi-1”, “After 72 h” for “After 72h”, “6016739) were” for “6016739) was”

pIC50: −log10 of the molar value.

Consider `CC(n1cc(-c2cc(N(C)C)cnn2)nn1)n1ccc(N2CCC[C@@H](NCC3CCC3)C2)cc1=O` (single isomer, unassigned) [Compound 198], for which the pIC50 (commonly the IC50 on a negative log10 scale, so that one unit is a factor of ten) in the assay on Kasumi-1 cells is 5.30 to 6.30; in assay [1], ≥ 7.30; with Caov-3 cells it was 5.30 to 6.30.

For `O=c1cc(N2CCC[C@@H](NCC3CC3)C2)ccn1Cn1cc(-c2cncc(N3CCCC3)n2)nn1` [Compound 201, (R)-4-(3-((cyclopropylmethyl)amino)piperidin-1-yl)-1-((4-(6-(pyrrolidin-1-yl)pyrazin-2-yl)-1H-1,2,3-triazol-1-yl)methyl)pyridin-2(1H)-one], the values for the negative logarithm of the IC50 (pIC50) (in the assay on Kasumi-1 cells; in assay [1]; in the assay on Caov-3 cells) were ≥ 6.30, ≥ 7.30 and ≥ 6.30, respectively.

For `CC1(CN[C@@H]2CCCN(c3ccc(C4(C(=O)Nc5cc(=O)n6ccccc6n5)COC4)nc3)C2)CC1` [Compound 331, (R)-3-(5-(3-(((1-methylcyclopropyl)methyl)amino)piperidin-1-yl)pyridin-2-yl)-N-(4-oxo-4H-pyrido[1,2-a]pyrimidin-2-yl)oxetane-3-carboxamide], the pIC50 with Kasumi-1 cells was ≥ 6.30; in assay [1], ≥ 7.30; with Caov-3 cells, ≥ 6.30.

Take `COc1cncc(-c2cn(Cc3ccc(N4CCC[C@@H](NCC5CCC5)C4)nn3)cn2)c1` [Compound 081, (R)-N-(cyclobutylmethyl)-1-(6-((4-(5-methoxypyridin-3-yl)-1H-imidazol-1-yl)methyl)pyridazin-3-yl)piperidin-3-amine]: the pIC50 in the assay on Kasumi-1 cells is 5.30 to 6.30; in assay [1], ≥ 7.30; with Caov-3 cells, ≥ 6.30.

Turning to `COc1cncc(-c2cn(C3(c4ccc(N5CCC[C@@H](NCC6CC6)C5)cn4)COC3)nn2)c1` [Compound 249, (R)-N-(cyclopropylmethyl)-1-(6-(3-(4-(5-methoxypyridin-3-yl)-1H-1,2,3-triazol-1-yl)oxetan-3-yl)pyridin-3-yl)piperidin-3-amine], the pIC50 with Kasumi-1 cells is ≥ 6.30; in assay [1], ≥ 7.30; with Caov-3 cells it was ≥ 6.30.

In the case of `CC(n1cc(-c2cc(N3CCCC3)cnn2)nn1)n1ccc(N2CCC[C@@H](NCC3CC3)C2)cc1=O` (single isomer, unassigned) [Compound 206], the pIC50 was 5.30 to 6.30 with Kasumi-1 cells, ≥ 7.30 in assay [1] and ≥ 6.30 in the assay with Caov-3 cells.

`COc1cncc(-c2cn(C(C)c3ccc(N4CCC[C@@H](NCC5CCC5)C4)cc3)nn2)c1` (mixture of isomers) [Compound 076, (3R)-N-(cyclobutylmethyl)-1-(4-(1-(4-(5-methoxypyridin-3-yl)-1H-1,2,3-triazol-1-yl)ethyl)phenyl)piperidin-3-amine]: the pIC50 with Kasumi-1 cells is 5.30 to 6.30; in assay [1], ≥ 7.30; in the assay on Caov-3 cells it was 5.30 to 6.30.

In the case of `CC(n1cc(-c2cncc(N3CC4CC4C3)n2)nn1)n1ccc(N2CCC[C@@H](NCC3CC3)C2)cc1=O` (single isomer, unassigned) [Compound 234], the pIC50 with Kasumi-1 cells is ≥ 6.30; in assay [1] it was ≥ 7.30; in the assay with Caov-3 cells, ≥ 6.30.

Consider `O=C(Nc1cc(=O)n2ccccc2n1)C1(c2ccc(N3CCC[C@@H](NCC4CC4)C3)nc2)COC1` [Compound 321, (R)-3-(6-(3-((cyclopropylmethyl)amino)piperidin-1-yl)pyridin-3-yl)-N-(4-oxo-4H-pyrido[1,2-a]pyrimidin-2-yl)oxetane-3-carboxamide], for which the figures for the pIC50 (in the assay with Kasumi-1 cells; in assay [1]; with Caov-3 cells) were 5.30 to 6.30, ≥ 7.30 and 5.30 to 6.30, respectively.

Turning to `CC(c1cnn(-c2cncc(C3CC3)c2)c1)c1ccc(N2CCC[C@@H](NCC3CC3)C2)cn1` (single isomer, unassigned) [Compound 356], the negative-log IC50 (pIC50) with Kasumi-1 cells was ≥ 6.30; in assay [1], ≥ 7.30; in the assay on Caov-3 cells it was ≥ 6.30.

In the case of `c1cc(C2(n3cc(-c4cncc(N5CCC6(CC6)C5)n4)nn3)COC2)ncc1N1CCC[C@@H](NCC2CC2)C1` [Compound 222, (R)-1-(6-(3-(4-(6-(5-azaspiro[2.4]heptan-5-yl)pyrazin-2-yl)-1H-1,2,3-triazol-1-yl)oxetan-3-yl)pyridin-3-yl)-N-(cyclopropylmethyl)piperidin-3-amine], the pIC50 in the assay on Kasumi-1 cells is ≥ 6.30; in assay [1], ≥ 7.30; in the assay with Caov-3 cells, ≥ 6.30.

For the compound `CC(n1cc(-c2cncc(N3CCCC3)c2)nn1)n1ccc(N2CCC[C@@H](NCC3CCC3)C2)cc1=O` (single isomer, unassigned) [Compound 160], the values for the pIC50 (with Kasumi-1 cells; in assay [1]; in the assay on Caov-3 cells) were ≥ 6.30, ≥ 7.30 and ≥ 6.30, respectively.

On to `c1ncc(-c2cn(C3(c4ccc(N5CCC[C@@H](NCC6CCC6)C5)cn4)COC3)nn2)cc1OC1CCC1` [Compound 307, (R)-1-(6-(3-(4-(5-cyclobutoxypyridin-3-yl)-1H-1,2,3-triazol-1-yl)oxetan-3-yl)pyridin-3-yl)-N-(cyclobutylmethyl)piperidin-3-amine], for which the figures for the pIC50 (in the assay with Kasumi-1 cells; in assay [1]; in the assay with Caov-3 cells) were ≥ 6.30, ≥ 7.30 and ≥ 6.30, respectively.

With `O=C(Nc1cc(=O)n2ccccc2n1)C1(c2ccc(N3CCC[C@@H](NCC4(F)CC4)C3)cn2)COC1` [Compound 330, (R)-3-(5-(3-(((1-fluorocyclopropyl)methyl)amino)piperidin-1-yl)pyridin-2-yl)-N-(4-oxo-4H-pyrido[1,2-a]pyrimidin-2-yl)oxetane-3-carboxamide], the negative logarithm of the IC50 (pIC50) is 5.30 to 6.30 with Kasumi-1 cells, ≥ 7.30 in assay [1] and 5.30 to 6.30 in the assay on Caov-3 cells.

With `COc1cncc(-c2ncc(Cn3ccc(N4CCC[C@@H](NCC5CCC5)C4)cc3=O)s2)c1` [Compound 097, (R)-4-(3-((cyclobutylmethyl)amino)piperidin-1-yl)-1-((2-(5-methoxypyridin-3-yl)thiazol-5-yl)methyl)pyridin-2(1H)-one], the negative-log IC50 (pIC50) in the assay on Kasumi-1 cells is ≥ 6.30; in assay [1] it was ≥ 7.30; in the assay on Caov-3 cells, ≥ 6.30.

With `CC(n1cnc(-c2cncc(N3CCCC3)n2)c1)n1ccc(N2CCC[C@@H](NCC3CC3)C2)cc1=O` (single isomer, unassigned) [Compound 226], the values for the pIC50 (in the assay with Kasumi-1 cells; in assay [1]; in the assay with Caov-3 cells) were ≥ 6.30, ≥ 7.30 and ≥ 6.30, respectively.

As for `COc1cncc(-c2cn(C(C)c3ccc(N4CCC[C@@H](NCC5CCC5)C4)cc3)cn2)c1` (single isomer, unassigned) [Compound 296], the negative logarithm of the IC50 (pIC50) was 5.30 to 6.30 in the assay on Kasumi-1 cells, ≥ 7.30 in assay [1] and 5.30 to 6.30 in the assay with Caov-3 cells.

For `CC(NC(=O)c1cc(=O)n2ccccc2n1)c1ccc(N2CCC[C@@H](NCC3CCC3)C2)cn1` (single isomer, unassigned) [Compound 058], the negative-log IC50 (pIC50) with Kasumi-1 cells is 5.30 to 6.30; in assay [1], ≥ 7.30; in the assay on Caov-3 cells, 5.30 to 6.30.

Regarding `CC(c1cnn(-c2cncc(N3CCCC3)n2)c1)c1ccc(N2CCC[C@@H](NCC3CC3)C2)cn1` (single isomer, unassigned) [Compound 354], the pIC50 in the assay on Kasumi-1 cells is ≥ 6.30; in assay [1], ≥ 7.30; in the assay with Caov-3 cells it was ≥ 6.30.

For the compound `CCOc1cncc(-c2cn(C(C)c3ccc(N4CCC[C@@H](NCC5CCC5)C4)nn3)nn2)c1` (single isomer, unassigned) [Compound 187], the pIC50 in the assay with Kasumi-1 cells is 5.30 to 6.30; in assay [1], ≥ 7.30; with Caov-3 cells, ≥ 6.30.

As for `CC(c1ccc(N2CCC[C@@H](NCC3CC3)C2)nn1)c1nnc(-c2cncc(C3CC3)c2)s1` (stereo partly drawn) [Compound 358, (3R)—N-(cyclopropylmethyl)-1-(6-(1-(5-(5-cyclopropylpyridin-3-yl)-1,3,4-thiadiazol-2-yl)ethyl)pyridazin-3-yl)piperidin-3-amine], the negative-log IC50 (pIC50) in the assay on Kasumi-1 cells is 5.30 to 6.30; in assay [1] it was ≥ 7.30; with Caov-3 cells, ≥ 6.30.
